This series has as its target SOD1. The settings on record: ASO.

“And” between values parts separate entries of the source, which are not always exact repeats. Identical values can stand only once. After the bases stand the sugars from the 5' end (letter, count) and the backbone: PS all phosphorothioate, else s phosphorothioate and o phosphodiester by linkage. Methylation of C is not given here. e = 2'-O-(2-methoxyethyl) (MOE); k = constrained ethyl (cEt); d = 2'-deoxy (DNA)

In the case of “TTAAGTCTGGCAAAATA (sugars e3 k2 d7 k2 e3, PS)”, the target mRNA inhibition (HepG2, 3 µM) turned out to be 2%.
Regarding “CTTTTTCATGGACCACCAGT (sugars e5 d10 e5, PS)”, under “HepG2, 5 µM”, the target mRNA inhibition came out at 9%.
As to “CCGTCGCCCTTCAGCACGCA (sugars e5 d8 e7, linkages s1 o3 s10 o3 s2)”, the target mRNA inhibition reads like this: (A431, 0.062 µM) 8%; (A431, 0.185 µM) 4%; (A431, 0.556 µM) 5%; (A431, 1.667 µM) 4%; (A431, 5 µM) 9%; (A431, 15 µM) 3%. The target mRNA inhibition (SH-SY5Y, 0.062 µM) is 11%; the target mRNA inhibition (SH-SY5Y, 0.185 µM) was determined as 15%; the target mRNA inhibition (SH-SY5Y, 0.556 µM) is 9%; the target mRNA inhibition (SH-SY5Y, 1.667 µM) came out at 30%; the target mRNA inhibition (SH-SY5Y, 5 µM) stood at 59%; the target mRNA inhibition (SH-SY5Y, 15 µM) is 76%.
Where the note is “HepG2, 5 µM”, “TTAGTTTGAATTTGGAT (sugars e2 k2 d9 k2 e2, PS)” came in with a target mRNA inhibition of 16%.
Where the note is “HepG2, 5 µM”, “AATGATGCAATGGTCTCCTG (sugars e5 d10 e5, PS)” had a target mRNA inhibition of 0%.
On to “GGCCAGACCTCCGCGCCTCG (sugars e5 d10 e5, PS)”, for which the target mRNA inhibition (HepG2, 4 µM) was found to be 49%.
For the sequence “TTCTACAGCTAGCAGGA (sugars e3 k2 d7 k2 e3, PS)”, the target mRNA inhibition (HepG2, 3 µM) stood at 31%.
Under “HepG2, 5 µM”, “TGATGCAATGGTCTCCTGAG (sugars e5 d10 e5, PS)” returned a target mRNA inhibition of 1%.
The sequence “ATTACTTTCCTTCTGCT (sugars e3 k2 d7 k2 e3, PS)” registered a target mRNA inhibition (HepG2, 3 µM) of 15%.
Consider “TTAGTTTGAATTTGGAT (sugars e2 k2 d8 k2 e3, PS)”, for which the target mRNA inhibition (HepG2, 5 µM) is 31%.
With “TTCTACAGCTAGCAGGA (sugars e2 k2 d8 k2 e3, PS)”, the target mRNA inhibition by setting is: (HepG2, 0.1875 µM) 18%; (HepG2, 0.75 µM) 48%; (HepG2, 3 µM) 66%; (HepG2, 4 µM) 74%; (HepG2, 12 µM) 86%.
In turn, “TTTTCATGGACCACCAGTGT (sugars e5 d10 e5, PS)” yielded a target mRNA inhibition (HepG2, 5 µM) of 17%.
Turning to “GTCACACAATTACACTT (sugars e2 k2 d8 k2 e3, PS)”, for the setting “HepG2, 5 µM”, the target mRNA inhibition came out at 28%.
“AGTGCCATACAGGGTTT (sugars e3 k2 d7 k2 e3, PS)”: for the setting “HepG2, 3 µM”, the target mRNA inhibition turned out to be 9%.
Take “CCGTCGCCCTTCAGCAC (sugars e2 k2 d9 k2 e2, PS)”: the target mRNA inhibition was found to be 24% (HepG2, 0.1875 µM); 42% (HepG2, 0.75 µM); 80% (HepG2, 3 µM); 75% (HepG2, 4 µM); 94% (HepG2, 12 µM).
Consider “GTACTTTAAAGCAACTCTGA (sugars e5 d10 e5, PS)”, for which the target mRNA inhibition (HepG2, 5 µM) was determined as 22%.
Same read-out and setting: the value for “GTTTCTCACTACAGGTACTT (sugars e5 d10 e5, PS)” was 30%.
With “GCACTGGTACAGCCTGCTGT (sugars e5 d10 e5, PS)”, where the note is “HepG2, 5 µM”, the target mRNA inhibition was 31% and 24%.
The sequence “TCTCACTACAGGTACTT (sugars e2 k2 d8 k2 e3, PS)” returned a target mRNA inhibition (HepG2, 5 µM) of 42%.
Regarding “ACACCTTCACTGGTCCA (sugars e3 k2 d7 k2 e3, PS)”, the target mRNA inhibition (HepG2, 3 µM) came out at 20%.
Turning to “GTTTATCAGGATACATT (sugars e2 k2 d9 k2 e2, PS)”, the target mRNA inhibition is, setting by setting: (HepG2, 0.1875 µM) 38%; (HepG2, 0.75 µM) 74%; (HepG2, 3 µM) 89%; (HepG2, 4 µM) 88%; (HepG2, 12 µM) 95%.
Consider “AGATTACAGTGTTTAAT (sugars e2 k2 d8 k2 e3, PS)”, for which the target mRNA inhibition was found to be 16% (HepG2, 0.1875 µM); 50% (HepG2, 0.75 µM); 62% (HepG2, 3 µM); 68% (HepG2, 5 µM); 77% (HepG2, 12 µM).
As to “TACAGGTACTTTAAAGC (sugars e2 k2 d8 k2 e3, PS)”, for the setting “HepG2, 5 µM”, the target mRNA inhibition was 23%.
“TTATTGGGCGATCCCAA (sugars e2 k2 d8 k2 e3, PS)” displayed a target mRNA inhibition (HepG2, 4 µM) of 41%.
Take “ACTTTAAAGCAACTCTGAAA (sugars e5 d10 e5, PS)”: the target mRNA inhibition (HepG2, 5 µM) was found to be 0%.
The same measure, in the same setting: under “CCTCATAATAAGTGCCA (sugars e2 k2 d9 k2 e2, PS)” stands 31%.
For “CTTTCCTTCTGCTCGAA (sugars e3 k2 d7 k2 e3, PS)”, the target mRNA inhibition (HepG2, 3 µM) stood at 0%.
“GGGCCTCAGACTACATC (sugars e3 k2 d7 k2 e3, PS)” returned a target mRNA inhibition (HepG2, 3 µM) of 24%.
As for “CCCTTCAGCACGCACAC (sugars e2 k2 d8 k2 e3, PS)”, the target mRNA inhibition by setting is: (HepG2, 0.1875 µM) 25%; (HepG2, 0.75 µM) 22%; (HepG2, 2 µM) 50%; (HepG2, 3 µM) 72%; (HepG2, 4 µM) 74%; (HepG2, 12 µM) 79%.
As to “ATAAGTGCCATACAGGG (sugars e2 k2 d8 k2 e3, PS)”, the target mRNA inhibition (HepG2, 5 µM) came to 36%.
Consider “GCTAGCAGGATAACAGA (sugars e2 k2 d8 k2 e3, PS)”, for which the target mRNA inhibition (HepG2, 4 µM) was 19%.
Consider “GGCGATCCCAATTACACCAC (sugars e5 d10 e5, linkages s1 o3 s11 o3 s1)”, for which the target mRNA inhibition amounted to 0% (A431, 0.12 µM); 0% (A431, 0.6 µM); 0% (A431, 3 µM); 30% (A431, 15 µM); 24% (HepG2, 0.222 µM); 34% (HepG2, 0.667 µM). For the same sequence, the target mRNA inhibition is, setting by setting: (HepG2, 2 µM) 79%; (HepG2, 6 µM) 55%.
In turn, “GTCGCCCTTCAGCACGC (sugars e2 k2 d8 k2 e3, PS)” registered a target mRNA inhibition (HepG2, 4 µM) of 60%.
With “TGGACCACCAGTGTGCGGCC (sugars e5 d10 e5, PS)”, the target mRNA inhibition (HepG2, 5 µM) came to 28%.
As to “AGATTACAGTGTTTAAT (sugars e2 k2 d9 k2 e2, PS)”, the target mRNA inhibition by setting is: (HepG2, 0.1875 µM) 28%; (HepG2, 0.75 µM) 41%; (HepG2, 3 µM) 63%; (HepG2, 5 µM) 63%; (HepG2, 12 µM) 71%.
Regarding “AGATCACAGAATCTTCAATA (sugars e5 d10 e5, PS)”, where the note is “HepG2, 5 µM”, the target mRNA inhibition is 14% and 29%.
With “ACACCTTCACTGGTCCATTA (sugars e5 d10 e5, linkages s1 o3 s11 o3 s1)”, the target mRNA inhibition is 5% (A431, 0.12 µM); 4% (A431, 0.6 µM); 4% (A431, 3 µM); 10% (A431, 15 µM); 50% and 36% and 39% (HepG2, 2 µM).
As to “CCTCAGACTACATCCAA (sugars e2 k2 d9 k2 e2, PS)”, the target mRNA inhibition amounted to 11% (HepG2, 0.1875 µM); 67% (HepG2, 0.75 µM); 89% (HepG2, 3 µM); 87% (HepG2, 4 µM); 94% (HepG2, 12 µM).
“CCAGACCTCCGCGCCTCGCC (sugars e5 d10 e5, PS)”: the target mRNA inhibition (HepG2, 4 µM) was 46%.
For “TAATACCCATCTGTGAT (sugars e2 k2 d8 k2 e3, PS)”, where the note is “HepG2, 5 µM”, the target mRNA inhibition was 25%.
Take “TTAATACCCATCTGTGA (sugars e2 k2 d8 k2 e3, PS)”: under “HepG2, 5 µM”, the target mRNA inhibition turned out to be 28%.
With “CATGCCTCTCTTCATCC (sugars e3 k2 d7 k2 e3, PS)”, the target mRNA inhibition (HepG2, 3 µM) worked out at 14%.
Regarding “AGTGTTTAATGTTTATC (sugars e2 k2 d8 k2 e3, PS)”, the target mRNA inhibition (HepG2, 0.1875 µM) amounted to 46%; the target mRNA inhibition (HepG2, 0.75 µM) turned out to be 74%; the target mRNA inhibition (HepG2, 3 µM) was found to be 84%; the target mRNA inhibition (HepG2, 5 µM) worked out at 88%; the target mRNA inhibition (HepG2, 12 µM) came out at 81%.
For “CACCTTCACTGGTCCAT (sugars e3 k2 d7 k2 e3, PS)”, the target mRNA inhibition was 19% (HepG2, 0.1875 µM); 39% (HepG2, 0.75 µM); 53% and 69% (HepG2, 3 µM); 88% (HepG2, 12 µM).
On to “GGCGATCCCAATTACACC (sugars e5 d8 e5, linkages s1 o3 s9 o2 s2)”, for which the target mRNA inhibition reads like this: (A431, 0.062 µM) 3%; (A431, 0.185 µM) 1%; (A431, 0.556 µM) 29%; (A431, 1.667 µM) 0%; (A431, 5 µM) 27%; (A431, 15 µM) 0%. The sequence further had a target mRNA inhibition (SH-SY5Y, 0.062 µM) of 0%; a target mRNA inhibition (SH-SY5Y, 0.185 µM) of 3%; a target mRNA inhibition (SH-SY5Y, 0.556 µM) of 21%; a target mRNA inhibition (SH-SY5Y, 1.667 µM) of 31%; a target mRNA inhibition (SH-SY5Y, 5 µM) of 47%; a target mRNA inhibition (SH-SY5Y, 15 µM) of 66%.
The sequence “GTTTCTCACTACAGGTA (sugars e2 k2 d8 k2 e3, PS)” registered a target mRNA inhibition (HepG2, 5 µM) of 25%.
With “CTTCCAAGTGATCATAA (sugars e2 k2 d8 k2 e3, PS)”, the target mRNA inhibition (HepG2, 5 µM) is 40%.
Sequence “CCACTCTGGCCCCAAAC (sugars e3 k2 d7 k2 e3, PS)” came in with a target mRNA inhibition (HepG2, 3 µM) of 17%.
“CCCCGTCTCCGCGACTACTT (sugars e5 d10 e5, PS)” came in with a target mRNA inhibition (HepG2, 4 µM) of 16%.
Still for that read-out and setting: the value for “CTGCAGGAGACTACGACGCA (sugars e5 d10 e5, PS)” was 36%.
For the sequence “CTGGATAGAGGATTAAA (sugars e3 k2 d7 k2 e3, PS)”, the target mRNA inhibition (HepG2, 3 µM) turned out to be 26%.
Take “GTGAGGACCTGCACTGG (sugars e3 k2 d7 k2 e3, PS)”: the target mRNA inhibition (HepG2, 3 µM) was 21%.
Take “TACATTTCTACAGCTA (sugars kekeddddddddekek, linkages s1 o3 s8 o1 s2)”: the target mRNA inhibition stood at 0% (A431, 0.12 µM); 13% (A431, 0.6 µM); 36% (A431, 3 µM); 59% (A431, 15 µM).

The values are drawn from the OligoGym collection.
